Test results from PubChem BioAssay (NCI).
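Briefly, cells in 96-well plates were exposed to five compound concentrations for 48 h, and endpoints were estimated by linear interpolation. TGI: concentration producing complete growth inhibition.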

Experiments:
Assay in all cases: DTP human tumour cell line panel, 48 h
SW-620 colon = tested on: SW-620 colon
SF-539 CNS = tested on: SF-539 CNS
RXF 393 renal = tested on: RXF 393 renal
OVCAR-4 ovarian = tested on: OVCAR-4 ovarian
MDA-MB-435 = tested on: MDA-MB-435
SNB-19 CNS = tested on: SNB-19 CNS
DU-145 prostate = tested on: DU-145 prostate
OVCAR-5 ovarian = tested on: OVCAR-5 ovarian
UO-31 renal = tested on: UO-31 renal
U251 CNS = tested on: U251 CNS
SK-MEL-5 melanoma = tested on: SK-MEL-5 melanoma
ACHN renal = tested on: ACHN renal
HOP-92 NSCLC = tested on: HOP-92 NSCLC
LOX IMVI melanoma = tested on: LOX IMVI melanoma
A549 NSCLC = tested on: A549 NSCLC
HCT-116 colon = tested on: HCT-116 colon
SNB-75 CNS = tested on: SNB-75 CNS
A498 renal = tested on: A498 renal
NCI-H226 lung = tested on: NCI-H226 lung
K-562 leukemia = tested on: K-562 leukemia
EKVX NSCLC = tested on: EKVX NSCLC
TK-10 renal = tested on: TK-10 renal
HL-60(TB) leukemia = tested on: HL-60(TB) leukemia
RPMI-8226 leukemia = tested on: RPMI-8226 leukemia
MALME-3M melanoma = tested on: MALME-3M melanoma
KM12 colon = tested on: KM12 colon
MCF7 breast = tested on: MCF7 breast
MOLT-4 leukemia = tested on: MOLT-4 leukemia
IGROV1 ovarian = tested on: IGROV1 ovarian
BT-549 breast = tested on: BT-549 breast
SF-295 CNS = tested on: SF-295 CNS
OVCAR-3 ovarian = tested on: OVCAR-3 ovarian
SF-268 CNS = tested on: SF-268 CNS
NCI-H460 lung = tested on: NCI-H460 lung
COLO 205 colon = tested on: COLO 205 colon
UACC-257 melanoma = tested on: UACC-257 melanoma
NCI-H522 lung = tested on: NCI-H522 lung
CAKI-1 renal = tested on: CAKI-1 renal
NCI/ADR-RES ovarian = tested on: NCI/ADR-RES ovarian
MDA-N = tested on: MDA-N
T-47D breast = tested on: T-47D breast
NCI-H23 lung = tested on: NCI-H23 lung
HT29 colon = tested on: HT29 colon
SK-MEL-28 melanoma = tested on: SK-MEL-28 melanoma
M14 melanoma = tested on: M14 melanoma
HCC-2998 colon = tested on: HCC-2998 colon
OVCAR-8 ovarian = tested on: OVCAR-8 ovarian
HCT-15 colon = tested on: HCT-15 colon
SN12C renal = tested on: SN12C renal
HOP-62 NSCLC = tested on: HOP-62 NSCLC
SK-OV-3 ovarian = tested on: SK-OV-3 ovarian
786-0 renal = tested on: 786-0 renal
SK-MEL-2 melanoma = tested on: SK-MEL-2 melanoma
MDA-MB-231 breast = tested on: MDA-MB-231 breast
UACC-62 melanoma = tested on: UACC-62 melanoma
SR leukemia = tested on: SR leukemia
CCRF-CEM leukemia = tested on: CCRF-CEM leukemia
PC-3 prostate = tested on: PC-3 prostate
HS 578T breast = tested on: HS 578T breast

For `N#C/C(=C\Nc1ccccn1)C(=O)C1CC1`, the TGI (SW-620 colon) was over 100 µM, the TGI (SF-539 CNS) was over 100 µM and the TGI (RXF 393 renal) was over 100 µM. For the same compound, the TGI (OVCAR-4 ovarian) was over 100 µM, the TGI (MDA-MB-435) was over 100 µM and the TGI (SNB-19 CNS) was over 100 µM. The TGI (DU-145 prostate) was over 100 µM, the TGI (OVCAR-5 ovarian) was over 100 µM and the TGI (UO-31 renal) was over 100 µM. For the same compound, the TGI (U251 CNS) was over 100 µM, the TGI (SK-MEL-5 melanoma) was over 100 µM and the TGI (ACHN renal) was over 100 µM. For the same compound, the TGI (HOP-92 NSCLC) was over 100 µM, the TGI (LOX IMVI melanoma) was over 100 µM and the TGI (A549 NSCLC) was over 100 µM. It also gave a TGI (HCT-116 colon) of over 100 µM, a TGI (SNB-75 CNS) of over 100 µM and a TGI (A498 renal) of over 100 µM. It also gave a TGI (NCI-H226 lung) of over 100 µM, a TGI (K-562 leukemia) of over 100 µM and a TGI (EKVX NSCLC) of over 100 µM. The TGI (TK-10 renal) was over 100 µM, the TGI (HL-60(TB) leukemia) was over 100 µM and the TGI (RPMI-8226 leukemia) was over 100 µM. For the same compound, the TGI (MALME-3M melanoma) was over 100 µM, the TGI (KM12 colon) was over 100 µM and the TGI (MCF7 breast) was over 100 µM. It also gave a TGI (MOLT-4 leukemia) of over 100 µM, a TGI (IGROV1 ovarian) of over 100 µM and a TGI (BT-549 breast) of over 100 µM. It also gave a TGI (SF-295 CNS) of over 100 µM, a TGI (OVCAR-3 ovarian) of over 100 µM and a TGI (SF-268 CNS) of over 100 µM. For the same compound, the TGI (NCI-H460 lung) was over 100 µM, the TGI (COLO 205 colon) was over 100 µM and the TGI (UACC-257 melanoma) was over 100 µM. The TGI (NCI-H522 lung) was over 100 µM, the TGI (CAKI-1 renal) was over 100 µM and the TGI (NCI/ADR-RES ovarian) was over 100 µM. The TGI (MDA-N) was over 100 µM, the TGI (T-47D breast) was over 100 µM and the TGI (NCI-H23 lung) was over 100 µM. The TGI (HT29 colon) was over 100 µM, the TGI (SK-MEL-28 melanoma) was over 100 µM and the TGI (M14 melanoma) was over 100 µM. The TGI (HCC-2998 colon) was over 100 µM, the TGI (OVCAR-8 ovarian) was over 100 µM and the TGI (HCT-15 colon) was over 100 µM. It also gave a TGI (SN12C renal) of over 100 µM, a TGI (HOP-62 NSCLC) of over 100 µM and a TGI (SK-OV-3 ovarian) of over 100 µM. For the same compound, the TGI (786-0 renal) was over 100 µM, the TGI (SK-MEL-2 melanoma) was over 100 µM and the TGI (MDA-MB-231 breast) was over 100 µM. It also gave a TGI (UACC-62 melanoma) of over 100 µM, a TGI (SR leukemia) of over 100 µM and a TGI (CCRF-CEM leukemia) of over 100 µM. It also gave a TGI (PC-3 prostate) of over 100 µM and a TGI (HS 578T breast) of over 100 µM.

For `C=CC[C@@]1(OC(C)=O)C(=O)C(=O)OC1C1COC(C)(C)O1` (stereo partly drawn), the TGI (SW-620 colon) was 26.6 µM, the TGI (SF-539 CNS) was 72.9 µM and the TGI (RXF 393 renal) was 40.1 µM. For the same compound, the TGI (OVCAR-4 ovarian) was 38.7 µM, the TGI (MDA-MB-435) was 30.9 µM and the TGI (SNB-19 CNS) was over 100 µM. The TGI (DU-145 prostate) was 53.8 µM, the TGI (OVCAR-5 ovarian) was 34.5 µM and the TGI (UO-31 renal) was 31.4 µM. For the same compound, the TGI (U251 CNS) was 31.3 µM, the TGI (SK-MEL-5 melanoma) was 30.4 µM and the TGI (ACHN renal) was 30.2 µM. For the same compound, the TGI (HOP-92 NSCLC) was 30.4 µM, the TGI (LOX IMVI melanoma) was 20 µM and the TGI (A549 NSCLC) was 58.1 µM. The TGI (HCT-116 colon) was 26.6 µM, the TGI (SNB-75 CNS) was 78.7 µM and the TGI (A498 renal) was 49 µM. It also gave a TGI (NCI-H226 lung) of over 100 µM, a TGI (K-562 leukemia) of 32.2 µM and a TGI (EKVX NSCLC) of 33 µM. It also gave a TGI (TK-10 renal) of 30 µM, a TGI (HL-60(TB) leukemia) of 27.2 µM and a TGI (RPMI-8226 leukemia) of 35.5 µM. It also gave a TGI (MALME-3M melanoma) of 32 µM, a TGI (KM12 colon) of 29.1 µM and a TGI (MCF7 breast) of 33.6 µM. It also gave a TGI (MOLT-4 leukemia) of 32.6 µM, a TGI (IGROV1 ovarian) of 34 µM and a TGI (BT-549 breast) of 40 µM. It also gave a TGI (SF-295 CNS) of over 100 µM, a TGI (OVCAR-3 ovarian) of 31.5 µM and a TGI (SF-268 CNS) of 39.4 µM. For the same compound, the TGI (NCI-H460 lung) was 39.1 µM, the TGI (COLO 205 colon) was 27.2 µM and the TGI (UACC-257 melanoma) was 31.9 µM. The TGI (NCI-H522 lung) was 19.6 µM, the TGI (CAKI-1 renal) was 4.42 µM and the TGI (NCI/ADR-RES ovarian) was 71.9 µM. The TGI (MDA-N) was 33.3 µM, the TGI (T-47D breast) was 37.5 µM and the TGI (NCI-H23 lung) was 40.5 µM. The TGI (HT29 colon) was 36.4 µM, the TGI (SK-MEL-28 melanoma) was 33.5 µM and the TGI (M14 melanoma) was 35.1 µM. It also gave a TGI (HCC-2998 colon) of 40.7 µM, a TGI (OVCAR-8 ovarian) of 41.2 µM and a TGI (HCT-15 colon) of 29 µM. It also gave a TGI (SN12C renal) of 32.5 µM, a TGI (HOP-62 NSCLC) of over 100 µM and a TGI (SK-OV-3 ovarian) of over 100 µM. The TGI (786-0 renal) was 24.6 µM, the TGI (SK-MEL-2 melanoma) was 43.5 µM and the TGI (MDA-MB-231 breast) was 30.9 µM. For the same compound, the TGI (UACC-62 melanoma) was 32.5 µM, the TGI (SR leukemia) was 37.9 µM and the TGI (CCRF-CEM leukemia) was 22.7 µM. For the same compound, the TGI (PC-3 prostate) was 40.2 µM and the TGI (HS 578T breast) was over 100 µM.
